Measured values taken from patent US20090311217A1, “3-SUBSTITUTED-1H-INDOLE COMPOUNDS, THEIR USE AS MTOR KINASE AND PI3 KINASE INHIBITORS, AND THEIR SYNTHESES” (priority 2008, published 2009).
Like-named read-outs stand apart in the source and are kept apart here.

Columns and labels:
Format in all cases: biochemical
PI3K-alpha = PI3K-alpha (Homo sapiens, UniProt P42336); assay: PI3K-alpha fluorescence polarization assay
PI3K-beta = PI3K-beta (Homo sapiens, UniProt P42338); assay: PI3K-beta fluorescence polarization assay; conditions: read-out: PI3Kβ Avg. IC50
Outline: (§1)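 Enzyme 5 ng; substrate diC8-PI(4,5)P2 2.5 μM; ATP 25 μM; 5 mM HEPES pH 7, 2.5 mM MgCl2; DMSO ≤2%; 1 h, 25° C. Quench 10 mM EDTA. Detect with GRP1 PH domain 100 nM + TMR-IP4 probe 5 nM by polarization.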

PI3K-gamma = PI3K-gamma (Homo sapiens, UniProt P48736); assay: PI3K-gamma fluorescence polarization assay; conditions: PI3Kγ Avg. IC50
Outline: as §1

PI3K-delta = PI3K-delta (Homo sapiens, UniProt O00329); assay: PI3K-delta fluorescence polarization assay; conditions: read-out: PI3Kδ Avg. IC50
human TOR = target: T1, human TOR (Homo sapiens, UniProt P42345); assay: mTOR enzyme assay (DELFIA, His6-S6K substrate); conditions: read-out: mTOR Kinase Avg. IC50
T1 construct: FLAG

PI3K-beta, sequence (P42338 whole entry, species assumed, the tested form may be a part): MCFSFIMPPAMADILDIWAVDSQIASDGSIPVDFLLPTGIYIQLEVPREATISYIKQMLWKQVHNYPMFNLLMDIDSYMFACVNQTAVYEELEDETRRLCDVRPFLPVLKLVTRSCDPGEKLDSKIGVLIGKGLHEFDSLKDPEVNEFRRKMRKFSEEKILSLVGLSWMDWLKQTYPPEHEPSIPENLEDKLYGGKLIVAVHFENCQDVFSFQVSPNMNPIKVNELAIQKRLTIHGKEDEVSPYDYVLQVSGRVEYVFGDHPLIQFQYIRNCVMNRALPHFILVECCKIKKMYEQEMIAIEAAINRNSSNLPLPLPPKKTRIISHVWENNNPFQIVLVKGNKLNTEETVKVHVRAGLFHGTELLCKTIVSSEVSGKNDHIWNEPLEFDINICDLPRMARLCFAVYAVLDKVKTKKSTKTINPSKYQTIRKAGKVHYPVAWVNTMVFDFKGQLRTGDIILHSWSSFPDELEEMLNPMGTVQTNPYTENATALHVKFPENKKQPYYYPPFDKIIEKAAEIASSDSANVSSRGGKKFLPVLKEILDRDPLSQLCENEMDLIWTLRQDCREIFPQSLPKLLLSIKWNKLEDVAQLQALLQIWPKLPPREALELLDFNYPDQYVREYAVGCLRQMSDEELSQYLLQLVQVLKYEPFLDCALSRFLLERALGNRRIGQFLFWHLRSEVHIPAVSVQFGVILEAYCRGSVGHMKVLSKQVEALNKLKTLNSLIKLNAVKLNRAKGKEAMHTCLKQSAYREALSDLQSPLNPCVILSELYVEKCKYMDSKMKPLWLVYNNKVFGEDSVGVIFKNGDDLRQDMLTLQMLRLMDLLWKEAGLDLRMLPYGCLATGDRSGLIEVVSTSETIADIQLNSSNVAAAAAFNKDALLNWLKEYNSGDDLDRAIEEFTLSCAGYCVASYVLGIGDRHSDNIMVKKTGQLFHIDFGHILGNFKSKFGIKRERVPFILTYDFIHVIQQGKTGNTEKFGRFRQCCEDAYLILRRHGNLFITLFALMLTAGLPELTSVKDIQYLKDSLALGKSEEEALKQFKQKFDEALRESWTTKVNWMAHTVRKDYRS
PI3K-beta, sequence (P27986 whole entry partner, species assumed, the tested form may be a part): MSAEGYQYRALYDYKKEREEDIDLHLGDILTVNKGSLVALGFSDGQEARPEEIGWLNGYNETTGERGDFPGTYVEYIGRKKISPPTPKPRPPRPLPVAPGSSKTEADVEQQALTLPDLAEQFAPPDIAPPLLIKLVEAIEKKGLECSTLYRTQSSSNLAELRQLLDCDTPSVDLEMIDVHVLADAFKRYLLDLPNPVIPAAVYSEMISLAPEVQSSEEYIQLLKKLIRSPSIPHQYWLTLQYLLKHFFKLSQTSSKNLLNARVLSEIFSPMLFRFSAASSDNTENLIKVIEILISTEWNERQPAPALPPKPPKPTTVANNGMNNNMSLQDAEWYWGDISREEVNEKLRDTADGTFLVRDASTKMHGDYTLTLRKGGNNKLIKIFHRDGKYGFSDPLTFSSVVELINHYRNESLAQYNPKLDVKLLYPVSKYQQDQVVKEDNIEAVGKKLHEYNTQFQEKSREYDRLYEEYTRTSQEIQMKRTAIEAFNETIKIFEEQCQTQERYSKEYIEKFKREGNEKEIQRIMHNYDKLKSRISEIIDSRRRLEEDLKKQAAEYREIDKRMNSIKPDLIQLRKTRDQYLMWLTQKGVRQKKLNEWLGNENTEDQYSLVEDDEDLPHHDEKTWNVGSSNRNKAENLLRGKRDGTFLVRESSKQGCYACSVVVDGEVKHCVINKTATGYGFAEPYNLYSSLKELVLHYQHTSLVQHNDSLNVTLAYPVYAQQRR
PI3K-delta, sequence (O00329 whole entry, species assumed): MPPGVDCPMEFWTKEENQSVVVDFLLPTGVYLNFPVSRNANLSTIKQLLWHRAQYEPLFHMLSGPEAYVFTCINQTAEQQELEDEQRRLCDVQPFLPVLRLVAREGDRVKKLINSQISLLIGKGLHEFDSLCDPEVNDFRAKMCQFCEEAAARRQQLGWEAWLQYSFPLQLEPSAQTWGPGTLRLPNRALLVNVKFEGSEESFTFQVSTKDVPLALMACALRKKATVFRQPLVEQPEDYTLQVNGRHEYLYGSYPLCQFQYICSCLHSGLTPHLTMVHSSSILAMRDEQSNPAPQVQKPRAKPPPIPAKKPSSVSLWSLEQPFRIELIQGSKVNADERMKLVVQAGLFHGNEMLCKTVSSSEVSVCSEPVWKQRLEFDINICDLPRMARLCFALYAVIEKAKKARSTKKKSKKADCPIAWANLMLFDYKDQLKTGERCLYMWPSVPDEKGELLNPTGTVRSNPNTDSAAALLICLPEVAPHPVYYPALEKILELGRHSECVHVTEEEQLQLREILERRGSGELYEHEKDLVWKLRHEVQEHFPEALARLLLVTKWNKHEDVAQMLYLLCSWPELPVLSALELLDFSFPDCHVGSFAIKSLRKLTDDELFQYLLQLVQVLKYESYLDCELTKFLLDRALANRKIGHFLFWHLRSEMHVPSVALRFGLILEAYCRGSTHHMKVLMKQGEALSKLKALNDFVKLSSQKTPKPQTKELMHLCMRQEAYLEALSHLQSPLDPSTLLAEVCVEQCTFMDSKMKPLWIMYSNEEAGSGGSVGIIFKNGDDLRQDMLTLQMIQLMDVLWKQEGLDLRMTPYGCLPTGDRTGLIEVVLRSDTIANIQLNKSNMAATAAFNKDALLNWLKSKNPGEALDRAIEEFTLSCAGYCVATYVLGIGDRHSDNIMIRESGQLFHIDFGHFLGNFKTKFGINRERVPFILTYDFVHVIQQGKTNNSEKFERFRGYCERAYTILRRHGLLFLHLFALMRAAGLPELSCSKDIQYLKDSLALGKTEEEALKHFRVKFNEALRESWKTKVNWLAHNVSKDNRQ
PI3K-delta, sequence (P27986 whole entry partner, species assumed): as the sequence (P27986 whole entry partner, species assumed, the tested form may be a part) above
PI3K-gamma, sequence (P48736 whole entry, species assumed): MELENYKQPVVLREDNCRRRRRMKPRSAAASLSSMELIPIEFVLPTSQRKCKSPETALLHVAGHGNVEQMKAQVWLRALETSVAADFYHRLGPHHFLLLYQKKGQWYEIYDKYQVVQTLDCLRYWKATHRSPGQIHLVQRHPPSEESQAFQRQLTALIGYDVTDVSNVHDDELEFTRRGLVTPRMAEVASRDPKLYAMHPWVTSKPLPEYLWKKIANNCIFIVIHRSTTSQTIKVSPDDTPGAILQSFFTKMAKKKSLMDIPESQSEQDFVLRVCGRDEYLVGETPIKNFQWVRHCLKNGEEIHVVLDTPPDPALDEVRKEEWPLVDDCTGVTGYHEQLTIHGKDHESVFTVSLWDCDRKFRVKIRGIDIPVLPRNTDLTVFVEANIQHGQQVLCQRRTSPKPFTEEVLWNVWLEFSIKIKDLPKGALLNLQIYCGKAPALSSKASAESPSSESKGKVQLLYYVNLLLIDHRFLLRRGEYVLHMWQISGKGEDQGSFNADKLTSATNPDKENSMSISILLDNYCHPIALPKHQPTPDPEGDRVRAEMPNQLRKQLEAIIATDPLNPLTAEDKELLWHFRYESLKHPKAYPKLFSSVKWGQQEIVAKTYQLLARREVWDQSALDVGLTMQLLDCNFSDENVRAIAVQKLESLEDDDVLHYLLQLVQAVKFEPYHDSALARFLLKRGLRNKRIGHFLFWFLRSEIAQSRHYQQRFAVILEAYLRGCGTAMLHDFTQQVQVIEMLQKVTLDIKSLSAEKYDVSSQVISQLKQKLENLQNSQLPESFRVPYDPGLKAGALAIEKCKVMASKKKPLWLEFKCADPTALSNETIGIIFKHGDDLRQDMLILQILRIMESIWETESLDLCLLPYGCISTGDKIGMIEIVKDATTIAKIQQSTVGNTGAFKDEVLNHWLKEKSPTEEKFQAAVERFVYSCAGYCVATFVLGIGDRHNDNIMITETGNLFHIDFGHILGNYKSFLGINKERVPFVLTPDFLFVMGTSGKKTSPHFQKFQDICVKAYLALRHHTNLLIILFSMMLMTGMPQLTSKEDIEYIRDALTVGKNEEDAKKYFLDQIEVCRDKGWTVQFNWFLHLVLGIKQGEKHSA
PI3K-alpha, sequence (P42336 whole entry, species assumed): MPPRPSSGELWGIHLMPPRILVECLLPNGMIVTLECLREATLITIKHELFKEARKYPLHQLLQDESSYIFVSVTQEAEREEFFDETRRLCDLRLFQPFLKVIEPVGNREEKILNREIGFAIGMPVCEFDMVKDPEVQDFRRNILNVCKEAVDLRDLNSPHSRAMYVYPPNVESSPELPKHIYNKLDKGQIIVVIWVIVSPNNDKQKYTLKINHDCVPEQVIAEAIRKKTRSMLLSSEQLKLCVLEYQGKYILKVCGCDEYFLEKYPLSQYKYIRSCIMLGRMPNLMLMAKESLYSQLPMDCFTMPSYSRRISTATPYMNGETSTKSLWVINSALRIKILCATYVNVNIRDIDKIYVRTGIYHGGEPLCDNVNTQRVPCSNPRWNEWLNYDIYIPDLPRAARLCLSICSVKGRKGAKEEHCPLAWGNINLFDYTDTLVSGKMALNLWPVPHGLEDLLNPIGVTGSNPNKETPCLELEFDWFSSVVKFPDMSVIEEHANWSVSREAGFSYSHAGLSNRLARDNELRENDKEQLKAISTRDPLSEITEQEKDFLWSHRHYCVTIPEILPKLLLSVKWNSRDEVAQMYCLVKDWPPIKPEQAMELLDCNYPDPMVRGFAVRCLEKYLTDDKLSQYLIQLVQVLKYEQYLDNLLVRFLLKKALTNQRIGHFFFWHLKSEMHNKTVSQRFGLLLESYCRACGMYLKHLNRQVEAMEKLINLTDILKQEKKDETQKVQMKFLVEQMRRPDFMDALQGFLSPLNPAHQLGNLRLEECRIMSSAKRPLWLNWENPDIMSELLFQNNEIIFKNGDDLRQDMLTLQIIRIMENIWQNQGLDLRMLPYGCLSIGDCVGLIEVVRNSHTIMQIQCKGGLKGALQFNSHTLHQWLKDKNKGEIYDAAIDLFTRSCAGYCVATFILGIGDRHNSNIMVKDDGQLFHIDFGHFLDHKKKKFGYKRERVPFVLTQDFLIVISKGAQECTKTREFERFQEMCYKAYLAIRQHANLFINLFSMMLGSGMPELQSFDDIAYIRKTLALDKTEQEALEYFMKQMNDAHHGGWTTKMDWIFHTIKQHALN
PI3K-alpha, sequence (P27986 whole entry partner, species assumed): as the sequence (P27986 whole entry partner, species assumed, the tested form may be a part) above

SMILES | IC50 (PI3K-alpha; read-out: PI3Kα Avg. IC50) [nM] | IC50 (PI3K-beta) [nM] | IC50 (PI3K-gamma) [nM] | IC50 (PI3K-delta) [nM] | IC50 (human TOR) [nM] | IC50 (PI3K-alpha; PI3Kα Avg. IC50) [nM]
COc1ccc2c(c1)c(/C=C1\Oc3cc(O)cc(O)c3C1=O)c(C1CC1)n2CCn1ccnc1 [Example 334, (2Z)-2-({2-Cyclopropyl-1-[2-(1H-imidazol-1-yl)ethyl]-5-methoxy-1H-indol-3-yl}methylene)-4,6-dihydroxy-1-benzofuran-3(2H)-one] | 1.3 | 1.2 | 2.2 | 1.5 | < 17 | –
Cc1[nH]c2ccc(Br)cc2c1/C=C1\Oc2cc(O)cc(O)c2C1=O [Example 61, (2Z)-2-[(5-bromo-2-methyl-1H-indol-3-yl)methylene]-4,6-dihydroxy-1-benzofuran-3(2H)-one] | – | 567 | 2220 | 374 | 190 | 179
COc1ccc2[nH]c(-c3c(C)noc3C)c(/C=C3\Oc4cc(O)cc(O)c4C3=O)c2c1 [Example 360, (2Z)-2-{[2-(3,5-Dimethylisoxazol-4-yl)-5-methoxy-1H-indol-3-yl]methylene}-4,6-dihydroxy-1-benzofuran-3(2H)-one] | 1.5 | 1.3 | 3.2 | 0.3 | 1.25 | –
COc1ccc2c(c1)c(/C=C1\Oc3cc(O)c(Br)cc3C1=O)c(C)n2CCN1CCN(C)CC1 [Example 349, (2Z)-5-Bromo-6-hydroxy-2-({5-methoxy-2-methyl-1-[2-(4-methylpiperazin-1-yl)ethyl]-1H-indol-3-yl}methylene)-1-benzofuran-3(2H)-one] | 82.5 | 931 | 5590 | 19 | > 20000 | –
COc1ccc2c(c1)c(C=C1Oc3cc(O)cc(O)c3C1=O)c(C)n2CCCN1CCN(C)CC1 [Example 95, 4,6-dihydroxy-2-({5-methoxy-2-methyl-1-[3-(4-methylpiperazin-1-yl)propyl]-1H-indol-3-yl}methylene)-1-benzofuran-3(2H)-one] | – | 27 | 402 | 2 | 153 | 14.7
COc1cc(F)c2[nH]c(-c3c(C)nn(C)c3C)c(/C=C3\Oc4ccc(NC(=O)Nc5ccc(C(=O)N(C)CCN(C)C)cc5)cc4C3=O)c2c1 [Compound 710, N-[2-(dimethylamino)ethyl]-4-({[(2Z)-2-{[7-fluoro-5-methoxy-2-(1,3,5-trimethyl-1H-pyrazol-4-yl)-1H-indol-3-yl]methylidene}-3-oxo-2,3-dihydro-1-benzofuran-5-yl]carbamoyl}amino)-N-methylbenzamide] | 0.2 | 0.7 | 2.35 | 0.6 | < 1 | –
COc1ccc2c(c1)c(/C=C1\Oc3cc(O)cc(O)c3C1=O)c(C)n2CCN1CCC(O)C1 (centres unmarked) [Example 327, (2Z)-4,6-Dihydroxy-2-({1-[2-(3-hydroxypyrrolidin-1-yl)ethyl]-5-methoxy-2-methyl-1H-indol-3-yl}methylene)-1-benzofuran-3(2H)-one] | 11 | 9.5 | 39 | 2.5 | < 30 | –
COc1ccc2[nH]c(CN(C)C)c(/C=C3\Oc4cc(O)cc(O)c4C3=O)c2c1 [Example 353, (2Z)-2-({2-[(Dimethylamino)methyl]-5-methoxy-1H-indol-3-yl}methylene)-4,6-dihydroxy-1-benzofuran-3(2H)-one] | 4 | 8 | 38 | 2 | 22 | –
COc1ccc2c(c1)c(C=C1Oc3cc(O)cc(O)c3C1=O)c(C)n2CCCN1CCOCC1 [Example 102, 4,6-dihydroxy-2-{[5-methoxy-2-methyl-1-(3-morpholin-4-ylpropyl)-1H-indol-3-yl]methylene}-1-benzofuran-3(2H)-one] | 8.5 | 45 | 75.5 | 1.9 | < 25 | –
COc1ccc2c(c1)c(C=C1Oc3cc(O)cc(O)c3C1=O)c(C)n2CCCN1CCN(CCO)CC1 [Example 103, 4,6-dihydroxy-2-[(1-{3-[4-(2-hydroxyethyl)piperazin-1-yl]propyl}-5-methoxy-2-methyl-1H-indol-3-yl)methylene]-1-benzofuran-3(2H)-one] | 6.6 | 22 | 108 | 2 | 108 | –

The next lines start with results.

IC50 (PI3K-alpha; read-out: PI3Kα Avg. IC50) [nM] | IC50 (PI3K-beta) [nM] | IC50 (PI3K-gamma) [nM] | IC50 (PI3K-delta) [nM] | IC50 (human TOR) [nM] | SMILES | IC50 (PI3K-alpha; PI3Kα Avg. IC50) [nM]
< 2.2 | 5.5 | 9.5 | 1.8 | < 50 | COc1ccc2[nH]c(-c3cccnc3)c(C=C3Oc4cc(O)cc(O)c4C3=O)c2c1 [Example 91, 4,6-dihydroxy-2-[(5-methoxy-2-pyridin-3-yl-1H-indol-3-yl)methylene]-1-benzofuran-3(2H)-one] | –
2 | 10 | 15.5 | 1.8 | 6.85 | COc1ccc2c(c1)c(/C=C1\Oc3cc(O)cc(O)c3C1=O)c(C)n2CCO [Example 321, (2Z)-4,6-Dihydroxy-2-{[1-(2-hydroxyethyl)-5-methoxy-2-methyl-1H-indol-3-yl]methylene}-1-benzofuran-3(2H)-one] | –
1.7 | 7.1 | 22.8 | 0.8 | 10.8 | COc1ccc2c(c1)c(/C=C1\Oc3cc(O)cc(O)c3C1=O)c(-c1cnn(C)c1)n2CCN1CCN(C)CC1 [Example 341, (2Z)-4,6-Dihydroxy-2-({5-methoxy-1-[2-(4-methylpiperazin-1-yl)ethyl]-2-(1-methyl-1H-pyrazol-4-yl)-1H-indol-3-yl}methylene)-1-benzofuran-3(2H)-one] | –
66 | 203 | 159 | 51 | 53 | COc1ccc2c(c1)c(/C=C1\Oc3cc(O)cc(O)c3C1=O)c(C(F)(F)F)n2CC(=O)N(C)C [Example 333, 2-{3-[(Z)-(4,6-Dihydroxy-3-oxo-1-benzofuran-2(3H)-ylidene)methyl]-5-methoxy-2-(trifluoromethyl)-1H-indol-1-yl}-N,N-dimethylacetamide] | –
32.3 | 96.5 | 403 | 38 | 130 | COc1cc2c(C=C3Oc4cc(O)cc(O)c4C3=O)c(C)n(C)c2cc1C [Example 185, 4,6-dihydroxy-2-[(5-methoxy-1,2,6-trimethyl-1H-indol-3-yl)methylene]-1-benzofuran-3(2H)-one] | –
11.3 | 10 | 238 | 2 | < 31 | COc1ccc2c(c1)c(C=C1Oc3cc(O)cc(O)c3C1=O)c(C)n2CCCCN1CCN(C)CC1 [Example 96, 4,6-dihydroxy-2-({5-methoxy-2-methyl-1-[4-(4-methylpiperazin-1-yl)butyl]-1H-indol-3-yl}methylene)-1-benzofuran-3(2H)-one] | –
25.5 | 23.5 | 1030 | 5.5 | 270 | COc1ccc2c(c1)c(/C=C1\Oc3cc(O)cc(O)c3C1=O)cn2CCN1CCN(C)CC1 [Example 308, (2Z)-4,6-Dihydroxy-2-({5-methoxy-1-[2-(4-methylpiperazin-1-yl)ethyl]-1H-indol-3-yl}methylene)-1-benzofuran-3(2H)-one] | –
72.7 | 72 | 716 | 32 | 10000 | O=C1/C(=C/c2c(-c3ccc4ccccc4c3)[nH]c3ccccc23)Oc2c1ccc(O)c2O [Example 55, (2Z)-6,7-dihydroxy-2-{[2-(2-naphthyl)-1H-indol-3-yl]methylene}-1-benzofuran-3(2H)-one] | –
12.5 | 51.6 | 130 | 18.5 | 39 | COc1ccc2c(c1)c(/C=C1\Oc3cc(O)cc(O)c3C1=O)c(-c1cnn(C)c1)n2CC(=O)N(C)C [Example 329, 2-{3-[(Z)-(4,6-Dihydroxy-3-oxo-1-benzofuran-2(3H)-ylidene)methyl]-5-methoxy-2-(1-methyl-1H-pyrazol-4-yl)-1H-indol-1-yl}-N,N-dimethylacetamide] | –
6 | 2.5 | 15.5 | 2 | < 24 | COc1ccc2c(c1)c(/C=C1\Oc3cc(O)cc(O)c3C1=O)c(C)n2CCn1ccnc1 [Example 328, (2Z)-4,6-Dihydroxy-2-({1-[2-(1H-imidazol-1-yl)ethyl]-5-methoxy-2-methyl-1H-indol-3-yl}methylene)-1-benzofuran-3(2H)-one] | –
5.7 | 19 | 162 | 2.3 | 130 | COc1ccc2c(c1)c(C=C1Oc3cc(O)cc(O)c3C1=O)c(C)n2CCCN1CCC(N(C)C)C1 (centres unmarked) [Example 104, 2-[(1-{3-[3-(dimethylamino)pyrrolidin-1-yl]propyl}-5-methoxy-2-methyl-1H-indol-3-yl)methylene]-4,6-dihydroxy-1-benzofuran-3(2H)-one] | –
13 | 75.3 | 7 | 9.7 | 20.5 | COc1ccc2c(c1)c(/C=C1\Oc3cc(O)cc(O)c3C1=O)c(C(F)(F)F)n2CCn1cccn1 [Example 337, (2Z)-4,6-Dihydroxy-2-({5-methoxy-1-[2-(1H-pyrazol-1-yl)ethyl]-2-(trifluoromethyl)-1H-indol-3-yl}methylene)-1-benzofuran-3(2H)-one] | –
